Results from patent EP4603105A1, “PHARMACEUTICAL COMPOSITION CONTAINING CYCLIC COMPOUND HAVING SELECTIVE KRAS INHIBITORY EFFECT AGAINST HRAS AND NRAS” (CHUGAI SEIYAKU KABUSHIKI KAISHA, priority 2022, dated 2024).
Read-outs that look alike come from different tables or passages of the source.

Legend:
[1] = target: GDP-bound NRAS wild-type protein (Homo sapiens, UniProt P01111); assay: Binding to NRAS by surface plasmon resonance (SPR), KD and KD ratio to KRAS
In short: (§1)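 Biotinylated GDP-bound RAS was captured at about 100–300 RU. Running buffer: HBS pH 7.4, 10 mM MgCl2, 10 µM GDP, 1 mM DTT, 0.01% Tween 20, 4% DMSO.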

[2] = target: GDP-bound KRAS wild-type protein (Homo sapiens, UniProt P01116); assay: Binding to KRAS by surface plasmon resonance (SPR), dissociation constant KD; settings: 1:1 binding model
In short: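 Running buffer contained 10 µM GDP and 10 mM MgCl2 to keep RAS in the GDP state, with 4% DMSO at pH 7.4. Compounds were flowed at 100 µL/min in 75 s steps of rising concentration over captured biotin-Avi RAS at 30°C. Sensorgrams were fitted 1:1 for KD.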

[3] = system: human lung cancer strain NCI-H441; assay: NCI-H441 cell proliferation inhibitory activity (CellTiter-Glo, 4 days); type: cell-based; settings: read-out: NCl-H441 IC50
Protocol: A test compound was dispensed into a U-bottom 384-well plate as 40 nL serially diluted dimethyl sulfoxide solutions using a liquid handler Echo (LABCYTE). […] This cell suspension was dispensed in an amount of 40 µL per well into a plate containing the test compound, and cultured at 37°C in a 5% carbon dioxide gas incubator. Four days later, 20 µL of CellTiter-Glo (registered trademark) (Promega) was added to each well and […] was measured. […]

[4] = target: HRAS wild-type protein (Homo sapiens, UniProt P01112); assay: Binding to HRAS by surface plasmon resonance (SPR), KD and KD ratio to KRAS
In short: as §1

[5] = ratio of KD with respect to GDP-bound NRAS wild-type protein to KD with respect to KRAS
[6] = 50% proliferation inhibitory concentration, four days
[7] = ratio of KD with respect to HRAS wild-type protein to KD with respect to KRAS
[8] = ratio of KD for GDP-bound NRAS wild-type protein to KD for KRAS
[9] = ratio of KD for HRAS wild-type protein to KD for KRAS

Sequence of GDP-bound NRAS wild-type protein (P01111 whole entry): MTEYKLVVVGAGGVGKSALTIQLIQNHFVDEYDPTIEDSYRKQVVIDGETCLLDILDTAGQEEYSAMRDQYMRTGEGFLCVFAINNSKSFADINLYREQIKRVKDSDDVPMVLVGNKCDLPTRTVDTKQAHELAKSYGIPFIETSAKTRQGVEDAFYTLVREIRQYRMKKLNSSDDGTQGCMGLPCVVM
Sequence of HRAS wild-type protein (P01112 whole entry): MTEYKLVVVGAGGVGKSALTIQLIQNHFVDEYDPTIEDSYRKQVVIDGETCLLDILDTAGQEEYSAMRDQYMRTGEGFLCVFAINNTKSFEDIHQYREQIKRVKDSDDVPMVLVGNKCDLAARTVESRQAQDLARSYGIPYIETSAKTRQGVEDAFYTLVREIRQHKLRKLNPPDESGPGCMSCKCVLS
Sequence of GDP-bound KRAS wild-type protein (P01116 1-188 isoform P01116-2): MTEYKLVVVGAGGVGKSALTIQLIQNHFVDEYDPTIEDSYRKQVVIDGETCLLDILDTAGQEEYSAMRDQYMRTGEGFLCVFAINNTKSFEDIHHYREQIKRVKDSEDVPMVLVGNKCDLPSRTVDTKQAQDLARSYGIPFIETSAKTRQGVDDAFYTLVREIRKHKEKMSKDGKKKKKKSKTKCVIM

SMILES | NRAS /KRAS [1, 5] | Kd ([2]; Single Cycle Kinetics) [nM] | IC50 [3, 6] [nM] | HRAS /KRAS [4, 7] | IC50 ([3]; NCI-H441 cells, 4 days) [nM] | further results
CC[C@H](C)[C@@H]1NC(=O)[C@H](CC)N(C)C(=O)C[C@@H](C(=O)N(C)C)N(C)C(=O)[C@H](C2CCCC2)N(C)C(=O)C2(CCC2)NC(=O)[C@@H]2CC(F)(F)CN2C(=O)[C@H](CCc2cc(F)c(C(F)(F)F)c(F)c2)NC(=O)CN(C)C(=O)[C@H](Cc2ccc(C(F)(F)F)cc2)N2CC/C=C\C[C@@H](C2=O)N(C)C(=O)CN(C)C1=O [PP1129] | A (a compound having 10 or more and less than 20 is denoted as A) | 0.056 | 10.2 | B (a compound having 3 or more and less than 10 is denoted as B) |  | 
CC[C@H](C)[C@@H]1NC(=O)[C@H](CC)N(C)C(=O)C[C@@H](C(=O)N(C)C)N(C)C(=O)[C@H](C2CCCC2)N(C)C(=O)C2(CCC2)NC(=O)[C@@H]2C[C@@H](OC)CN2C(=O)[C@H](CCc2cc(F)c(C(F)(F)F)c(F)c2)NC(=O)CN(C)C(=O)[C@H](Cc2ccc(C(F)(F)F)cc2)N2CC/C=C\C[C@@H](C2=O)N(C)C(=O)CN(C)C1=O [PP1130] | A (a compound having 10 or more and less than 20 is denoted as A) | 0.035 | 19.6 | B (a compound having 3 or more and less than 10 is denoted as B) |  | 
CC[C@H](C)[C@@H]1NC(=O)[C@H](CC)N(C)C(=O)C[C@@H](C(=O)N(C)C)N(C)C(=O)[C@H](C2CCCC2)N(C)C(=O)C2(CCC2)NC(=O)[C@@H]2C[C@H](F)CN2C(=O)[C@H](CCc2cc(F)c(C(F)(F)F)c(F)c2)NC(=O)CN(C)C(=O)[C@H](Cc2ccc(C(F)(F)F)cc2)N2CC/C=C\C[C@@H](C2=O)N(C)C(=O)CN(C)C1=O [PP1132] | A (a compound having 10 or more and less than 20 is denoted as A) | 0.066 | 86.8 | B (a compound having 3 or more and less than 10 is denoted as B) |  | 
CC[C@H](C)[C@@H]1NC(=O)[C@H](CC)N(C)C(=O)C[C@@H](C(=O)N(C)C)N(C)C(=O)[C@H](C2CCCC2)N(C)C(=O)C2(CCC2)NC(=O)[C@@H]2C[C@@H](C(F)(F)F)CN2C(=O)[C@H](CCc2cc(F)c(C(F)(F)F)c(F)c2)NC(=O)CN(C)C(=O)[C@H](Cc2ccc(C(F)(F)F)cc2)N2CC/C=C\C[C@@H](C2=O)N(C)C(=O)CN(C)C1=O [PP1133] | A (a compound having 10 or more and less than 20 is denoted as A) | 0.05 | 16.5 | A (a compound having 10 or more and less than 20 is denoted as A) |  | 
CC[C@H](C)[C@@H]1NC(=O)[C@H](CC)N(C)C(=O)C[C@@H](C(=O)N(C)C)N(C)C(=O)[C@H](C2CCCC2)N(C)C(=O)C2(CCC2)NC(=O)[C@@H]2C[C@H](C)CN2C(=O)[C@H](CCc2cc(F)c(C(F)(F)F)c(F)c2)NC(=O)CN(C)C(=O)[C@H](Cc2ccc(C(F)(F)F)cc2)N2CC/C=C\C[C@@H](C2=O)N(C)C(=O)CN(C)C1=O [PP1134] | A (a compound having 10 or more and less than 20 is denoted as A) | 0.06 | 20 | B (a compound having 3 or more and less than 10 is denoted as B) |  | 
CCCCCC[C@H]1C(=O)N[C@@H]([C@@H](C)CC)C(=O)N(C)CC(=O)N(C)[C@H]2C/C=C\CCN(C2=O)[C@@H](Cc2ccc(C(F)(F)F)cc2)C(=O)N(C)CC(=O)N[C@@H](CCc2cc(F)c(C(F)(F)F)c(F)c2)C(=O)N2C[C@H](OCC)C[C@H]2C(=O)NC2(CCC2)C(=O)N(C)[C@@H](C(CC)CC)C(=O)N(C)[C@H](C(=O)N(C)C)CC(=O)N1C [PP1202] |  | 0.4 | 24.1 |  |  | 
CCO[C@@H]1C[C@H]2C(=O)NC3(CCC3)C(=O)N(C)[C@@H](C3CCCC3)C(=O)N(C)[C@@H](C(=O)N(C)C)CC(=O)N(C)[C@@H](CC3CCCC3)C(=O)N[C@@H]([C@@H](C)CC)C(=O)N(C)CC(=O)N(C)[C@H]3C/C=C\CCN(C3=O)[C@@H](Cc3ccc(C(F)(F)F)cc3)C(=O)N(C)CC(=O)N[C@@H](CCc3cc(F)c(C(F)(F)F)c(F)c3)C(=O)N2C1 [PP1235] | B (a compound having 3 or more and less than 10 is denoted as B) |  | 386 | C (A compound having a KD ratio of 0.1 or more and less than 3 is denoted as C) |  | 
CC[C@H](C)[C@@H]1NC(=O)[C@H](CC)N(C)C(=O)C[C@@H](C(=O)N2CCOCC2)N(C)C(=O)[C@H](C2CCCC2)N(C)C(=O)C2(CCCC2)NC(=O)[C@@H]2CCCN2C(=O)[C@H](CCc2cc(F)c(C(F)(F)F)c(F)c2)NC(=O)CN(C)C(=O)[C@H](Cc2ccc(C(F)(F)F)cc2)N2CC(C)[C@@H](C)C[C@@H](C2=O)N(C)C(=O)CN(C)C1=O (stereo partly drawn) [PP1350] | B (a compound having 3 or more and less than 10 is denoted as B) |  | 20.1 | B (a compound having 3 or more and less than 10 is denoted as B) |  | 
CCO[C@@H]1C[C@H]2C(=O)NC3(CCC3)C(=O)N(C)[C@@H](C3CCCC3)C(=O)N(C)[C@H](C(=O)N(C)C)CC(=O)N(C)[C@@H](CC)C(=O)N[C@@H]([C@@H](C)CC)C(=O)N(C)CC(=O)N(C)[C@H]3C/C=C\CCN(C3=O)[C@@H](CC3CCCCC3)C(=O)N(C)CC(=O)N[C@@H](CCc3cc(F)c(C(F)(F)F)c(F)c3)C(=O)N2C1 [PP1466] |  |  | 33.2 |  |  | 
CCO[C@@H]1C[C@H]2C(=O)NC3(CCC3)C(=O)N(C)[C@@H](C3CCCC3)C(=O)N(C)[C@H](C(=O)N(C)C)CC(=O)N(C)[C@@H](CC3CCCC3)C(=O)N[C@@H]([C@@H](C)CC)C(=O)N(C)CC(=O)N(C)[C@H]3C/C=C\CCN(C3=O)[C@@H](CC3CCCCC3)C(=O)N(C)CC(=O)N[C@@H](CCc3cc(F)c(C(F)(F)F)c(F)c3)C(=O)N2C1 [PP1472] |  |  | 37.1 |  |  | 
CCCOC[C@H]1C(=O)N[C@@H]([C@@H](C)OCC)C(=O)N(C)CC(=O)N(C)[C@H]2C/C=C\CCN(C2=O)[C@@H](Cc2ccc(C)cc2)C(=O)N(C)CC(=O)N[C@@H](CCc2ccc(C(F)(F)F)c(OC)c2)C(=O)N2C[C@@H](C)C[C@H]2C(=O)NC2(CC(C)(C)C2)C(=O)N(C)[C@@H](C2CCCC2)C(=O)N(C)[C@H](C(=O)N(C)CC)CC(=O)N1C [PP2423] |  |  |  |  | 71.9 | NRAS /KRAS [1, 8]: A (a compound having 10 or more and less than 20 is denoted as A); HRAS /KRAS [4, 9]: A (a compound having 10 or more and less than 20 is denoted as A)
CCC(CC)[C@H]1C(=O)N(C)[C@H](C(=O)N(C)C)CC(=O)N(C)[C@@H](COC)C(=O)N[C@@H]([C@@H](C)CC)C(=O)N(C2CC2)CC(=O)N(C)[C@H]2C/C=C\CCN(C2=O)[C@@H](CC2CCCCC2)C(=O)N(C)CC(=O)N[C@@H](CCc2ccc(Cl)c(Cl)c2)C(=O)N2C[C@H](OC(C)C)C[C@H]2C(=O)NC2(CC(C)(C)C2)C(=O)N1C [PP2517] |  |  |  |  | 562 | Kd [2]: 9.3 nM; HRAS /KRAS [4, 9]: A (a compound having 10 or more and less than 20 is denoted as A)
CC[C@H](C)[C@@H]1NC(=O)[C@H](COC)N(C)C(=O)C[C@@H](C(=O)N(C)C)N(C)C(=O)[C@H](C2CCCC2)N(C)C(=O)C2(CC(C)(C)C2)NC(=O)[C@@H]2C[C@@H](OC3CCCC3)CN2C(=O)[C@H](CCc2cc(F)c(C(F)(F)F)c(F)c2)NC(=O)CN(C)C(=O)[C@H](Cc2ccc(C)cc2)N2CC/C=C\C[C@@H](C2=O)N(C)C(=O)CN(C2CC2)C1=O [PP2626] |  |  |  |  | 33.4 | NRAS /KRAS [1, 8]: A (a compound having 10 or more and less than 20 is denoted as A); HRAS /KRAS [4, 9]: A (a compound having 10 or more and less than 20 is denoted as A)
CCO[C@@H]1C[C@H]2C(=O)NC3(CC(C)(C)C3)C(=O)N(C)[C@@H](C3CCCC3)C(=O)N(C)[C@H](C(=O)N(C)CC)CC(=O)N(C)[C@@H]([C@H](C)OC)C(=O)N[C@@H]([C@@H](C)CC)C(=O)N(C)CC(=O)N(C)[C@H]3C/C=C\CCN(C3=O)[C@@H](Cc3ccc(C(F)(F)F)cc3)C(=O)N(C)CC(=O)N[C@@H](CCc3ccc(C(F)(F)F)c(OC)c3)C(=O)N2C1 [PP3216] |  |  |  |  | 22.1 | 
CCO[C@@H]1C[C@H]2C(=O)NC3(CC(C)(C)C3)C(=O)N(C)[C@@H](C3CCCC3)C(=O)N(C)[C@H](C(=O)N(C)CC)CC(=O)N(C)[C@@H]([C@H](C)OC)C(=O)N[C@@H]([C@@H](C)CC)C(=O)N(C)CC(=O)N(C)[C@H]3C/C=C\CCN(C3=O)[C@@H](Cc3ccc(C(F)(F)F)cc3)C(=O)N(C)CC(=O)N[C@@H](CCc3ccc(C(F)(F)F)c(Cl)c3)C(=O)N2C1 [PP3218] |  |  |  |  | 15.1 | 
CCO[C@@H]1C[C@H]2C(=O)NC3(CC(C)(C)C3)C(=O)N(C)[C@@H](C3CCCC3)C(=O)N(C)[C@H](C(=O)N(C)CC)CC(=O)N(C)[C@@H]([C@H](C)OC)C(=O)N[C@@H]([C@@H](C)CC)C(=O)N(C)CC(=O)N(C)[C@H]3C/C=C\CCN(C3=O)[C@@H](Cc3ccc(C)cc3)C(=O)N(C)CC(=O)N[C@@H](CCc3ccc(C(F)(F)F)c(OC)c3)C(=O)N2C1 [PP3225] |  |  |  |  | 12.1 | 
